In patent US12134607B2, “Crystals of tetrahydronaphthyl urea derivative” (MOCHIDA PHARMACEUTICAL CO., LTD., priority 2017, dated 2024):
≈ marks a conversion by molar mass, not a printed value. Like-named read-outs stand apart in the source and are kept apart here.

Experiments:
[1] = Determination of equilibrium solubility in phosphate buffer solution with pH 6.8; format: physicochemical; details: pH 6.8 phosphate buffer, mean value of three measurements
Source text: (Test Example 1) Determination of Equilibrium Solubility (Determination of Solubility in Phosphate Buffer Solution with pH 6.8)
Each of the equilibrium solubilities (solubility in phosphate buffer solution with pH 6.8) of Type I (Example 2), III (Example 3), V (Example 4) and VI crystals (Example 5) of 1-((1R,2R)-2-hydroxy-4,4-dimethyl-1,2,3,4-tetrahydronaphthalen-1-yl)-3-(5-methyl-6-(2-methylpyrimidin-5-yl)-2-phenylpyridin-3-yl)urea obtained in the above (Example 2) to (Example 5) was determined as follows:
Water was added a weighed potassium dihydrogen phosphate of 2.7 g to make 100 mL volume to prepare 0.2 mol/L potassium dihydrogen phosphate solution. Water was added a weighed disodium hydrogen phosphate […] of 7.2 g to make 100 mL volume to prepare 0.2 mol/L disodium hydrogen phosphate solution. A pH 6.8 phosphate buffer solution was prepared by diluting a mixture of 0.2 mol/L potassium dihydrogen phosphate solution (14.8 mL) and 0.2 mol/L disodium hydrogen phosphate solution (10.0 mL) with water (173.6 mL).
Approximately 1 mg of the each crystal from (Example 2) to (Example 5) was weighed into a screw tube, and a pH 6.8 phosphate buffer solution (1 mL) was added. An isothermal shaker (M-BR-022UP) was used to incubate the sample at 37° C. and 1000 rpm for 24 hours. 100 μL solution were sampled at 1, 2, 6, and 24 hours after the start of incubation, and were filtered using a centrifuge (HITACHI, Himac cF 9RX, at 25° C., at 1500 rpm, for 30 seconds) with a filter (Millipore: Multiscreen, MSSLBPC10) so as to remove insoluble materials. A 20 μL of the filtrate was quantified, and diluted with a solution (180 μL, pH 9.0) of 20 vol % tetrahydrofuran and 80 vol % ammonium bicarbonate aqueous solution (10 mM). A 10 μL of the prepared solution was quantified, and diluted with a solution (190 μL, pH 9.0) of 20 vol % tetrahydrofuran and 80 vol % ammonium bicarbonate aqueous solution (10 mM). The prepared solution was analyzed by ultra performance liquid chromatography (UPLC) under the following measurement conditions, and the concentration of the compound in the solution was calculated based on a previously prepared calibration curve. Three times of measurements were made for each example compound, and the mean values and standard deviations of the three measurements are shown as a result in Table 6.
<UPLC measurement conditions> Equipment: ACQUITY UPLC H-Class (Waters) Detector: PDA (200-500 nm) Column: BEH C18 2.1×50 mm Measurement wavelength: 270 nm Column temperature: 40° C. Injection amount: 10 μL Mobile phase: • Solvent A, acetonitrile; • Solvent B, 10 mM ammonium bicarbonate aqueous solution (pH 9.0) Gradient conditions: […]

Storage stability test = format: physicochemical; details: for Moisture absorption: during the storage period; for Chemical and physical stability over the test period: storage for 1 month, result in words
Experimental: For the stability test, approximately 20 mg of the test sample was stored at 25° C./60% RH or at 40° C./75% RH in open or closed condition for 1 month using a small environmental tester SH-641 (manufactured by Espec), and changes in purity and in crystalline form were observed.
For purity measurement, equipment of Waters ACQUITY UPLC H-Class (manufactured by Waters) and column of Waters ACQUITY BEH C18 (particle diameter […], size 2.1×50 mm) are used. For the mobile phase, 10 mmol/L ammonium bicarbonate buffer pH 9.0 and acetonitrile were used; and the test sample solution at 100 μg/mL in the mixture solvent of THF (tetrahydrofuran):10 mmol/L ammonium bicarbonate buffer (20:80) was prepared.
(Test Example 2) Storage Stability Test
The type I (Example 2), III (Example 3), V (Example 4) and VI (Example 5) crystals (each about 20 mg) of 1-((1R,2R)-2-hydroxy-4,4-dimethyl-1,2,3,4-tetrahydronaphthalen-1-yl)-3-(5-methyl-6-(2-methylpyrimidin-5-yl)-2-phenylpyridin-3-yl)urea obtained in the above Examples 2 to 5 were stored in glass bottles under the respective conditions described in Table 7. After completion of the storage period, the retrieved sample was confirmed on the purity by high performance liquid chromatography and on the crystal form by powder X-ray diffraction analysis as in the Examples.

[2] = Photostability test according to ICH Q1B; format: physicochemical
Experimental: (Test Example 3) Photostability Test
The type I (Example 2), III (Example 3), V (Example 4), and VI (Example 5) crystals (each about 20 mg) of 1-((1R,2R)-2-hydroxy-4,4-dimethyl-1,2,3,4-tetrahydronaphthalen-1-yl)-3-(5-methyl-6-(2-methylpyrimidin-5-yl)-2-phenylpyridin-3-yl)urea obtained in the above Examples 2 to 5 were placed in a transparent plastic container and covered, and were subjected to photostability test according to the ICH Q1B (Guidelines on Photostability Testing of New Active Substances and Medicinal Products) described in Table 8 (Here, the photostability test samples were stored at about 25° C. under separate lamps which respectively emits visible light and UV-A light so that the total light exposure should be 1.2 million lux hours and 200 W hours/m^2 or more, respectively. A 5-day study should be designated as “0.5 ICH” and a 10-day study as “1 ICH”). […] After completion of the test, the retrieved sample was confirmed on the purity by high performance liquid chromatography and on the crystal form by powder X-ray diffraction analysis as in the Examples.

[3] = Pharmacokinetic study, single oral dose in rats; format: in vivo
Experimental: (Pharmacology Experiment 5): Pharmacokinetic Study
Plasma sample obtained by centrifugation of blood (12000×g, for 5 minutes, at 4° C.) was measured to determine plasma concentration of the test compound using high performance liquid chromatography/mass spectrometry. Similarly, concentrations of standard solutions containing the test compound at known concentrations (0.001, 0.002, 0.005, 0.01, 0.02, 0.05, 0.1, 0.2, 0.5, 1, 2, and 5 μg/mL) were measured. And then, the plasma concentration (μg/mL) of the compound (1) was calculated from the prepared calibration curve to obtain the maximum plasma concentration (Cmax (μg/mL)) and the area under the plasma concentration-time curve (AUC (μg·hr/mL)). Measurement conditions can be appropriately adjusted by a person skilled in the art.

[4] = 25° C./60% RH, closed for 1 month
[5] = 25° C./60% RH, open for 1 month
[6] = 40° C./75% RH, closed for 1 month
[7] = 40° C./75% RH, open for 1 month
[8] = Shielded from light by aluminum foil, 0.5 ICH
[9] = Shielded from light by aluminum foil, 1 ICH
[10] = Shielded from light by aluminum foil, Before the test
[11] = male Crl:CD (SD) rats, oral single dose 600 mg/kg in 0.5 w/v % methylcellulose 400

SMILES | Chemical purity (%) (Storage stability test; [4]) | Crystalline form after completion of storage period (Storage stability test; [4]) | Chemical purity (%) (Storage stability test; [5]) | Crystalline form after completion of storage period (Storage stability test; [5]) | Chemical purity (%) (Storage stability test; [6]) | Crystalline form after completion of storage period (Storage stability test; [6]) | Chemical purity (%) (Storage stability test; [7]) | Crystalline form after completion of storage period (Storage stability test; [7]) | Chemical purity (%) (Storage stability test; Before the test) | Crystalline form after completion of storage period (Storage stability test; Before the test) | Chemical purity (%) ([2]; Exposure, 0.5 ICH (5-day)) | Crystalline form after completion of storage period ([2]; Exposure, 0.5 ICH (5-day)) | Chemical purity (%) ([2]; Exposure, 1 ICH (10-day)) | Crystalline form after completion of storage period ([2]; Exposure, 1 ICH (10-day)) | Chemical purity (%) ([2]; Exposure, Before the test) | Crystalline form after completion of storage period ([2]; Exposure, Before the test) | Chemical purity (%) [2, 8] [%] | Crystalline form after completion of storage period [2, 8] | Chemical purity (%) [2, 9] [%] | Crystalline form after completion of storage period [2, 9] | also measured
Cc1ncc(-c2nc(-c3ccccc3)c(NC(=O)N[C@@H]3c4ccccc4C(C)(C)C[C@H]3O)cc2C)cn1 [Example 2, 1-((1R,2R)-2-hydroxy-4,4-dimethyl-1,2,3,4-tetrahydronaphthalen-1-yl)-3-(5-methyl-6-(2-methylpyrimidin-5-yl)-2-phenylpyridin-3-yl)urea] | 99.8 | Type I crystal | 99.8 | Type I crystal | 99.8 | Type I crystal | 99.8 | Type I crystal | 99.8 | Type I crystal | 99.2 | Type I crystal | 98.9 | Type I crystal | 99.8 | Type I crystal | 99.8 | Type I crystal | 99.8 | Type I crystal | Solubility ([1]; 37° C.): 0.0332 mg/mL (≈ 67.3 µM); Moisture absorption (Storage stability test): no moisture absorption was observed; Chemical and physical stability over the test period (Storage stability test): chemically and physically stable; Chemical purity (%) [2, 10]: 99.8%; Crystalline form after completion of storage period [2, 10]: Type I crystal; Stability against light ([2]; result in words, listed as type I crystal): stable against light; AUC ([3]; male, Crl:CD (SD), rat, plasma, po, 600 mg/kg, oral single dose 600 mg/kg in 0.5 w/v % methylcellulose 400, read-out: Area Under Plasma Concentration (AUC)): 561 µg·h/mL; Cmax ([3]; male, Crl:CD (SD), rat, plasma, po, 600 mg/kg, oral single dose 600 mg/kg in 0.5 w/v % methylcellulose 400, read-out: Maximum Plasma Concentration (Cmax)): 29.7 µg/mL
Cc1ncc(-c2nc(-c3ccccc3)c(NC(=O)N[C@@H]3c4ccccc4C(C)(C)C[C@H]3O)cc2C)cn1 [Example 4, 1-((1R,2R)-2-hydroxy-4,4-dimethyl-1,2,3,4-tetrahydronaphthalen-1-yl)-3-(5-methyl-6-(2-methylpyrimidin-5-yl)-2-phenylpyridin-3-yl)urea] | 99.8 | Type V crystal | 99.8 | Type V crystal | 99.8 | Type V crystal | 99.8 | Type V crystal | 99.8 | Type V crystal | 99.8 | Type V crystal | 99.8 | Type V crystal | 99.9 | Type V crystal | 99.9 | Type V crystal | 99.9 | Type V crystal | Solubility ([1]; 37° C.): 0.0601 mg/mL (≈ 122 µM); Moisture absorption (Storage stability test): no moisture absorption was observed; Chemical and physical stability over the test period (Storage stability test): chemically and physically stable; Chemical purity (%) [2, 10]: 99.9%; Crystalline form after completion of storage period [2, 10]: Type V crystal; Stability against light ([2]; result in words, listed as type V crystal): stable against light; Area Under Plasma Concentration (AUC) [3, 11]: 473 µg·h/mL; Maximum Plasma Concentration (Cmax) [3, 11]: 26.9 µg/mL
Cc1ncc(-c2nc(-c3ccccc3)c(NC(=O)N[C@@H]3c4ccccc4C(C)(C)C[C@H]3O)cc2C)cn1 [Example 5, 1-((1R,2R)-2-hydroxy-4,4-dimethyl-1,2,3,4-tetrahydronaphthalen-1-yl)-3-(5-methyl-6-(2-methylpyrimidin-5-yl)-2-phenylpyridin-3-yl)urea] | 99.9 | Type VI crystal | 99.9 | Type VI crystal | 99.9 | Type VI crystal | 99.9 | Type VI crystal | 99.8 | Type VI crystal | 99.7 | Type I crystal | 99.5 | Type I crystal | 99.8 | Type I crystal | 99.8 | Type I crystal | 99.8 | Type I crystal | Solubility ([1]; phosphate buffer solution pH 6.8, 37 °C, pH 6.8, aqueous buffer, thermodynamic from solid, read-out: Solubility): 0.0411 mg/mL (≈ 83.3 µM); Crystal form change during storage (Storage stability test; storage (open system)): transferred to the type I crystal; Chemical purity (%) [2, 10]: 99.8%; Crystalline form after completion of storage period [2, 10]: Type VI crystal; Crystal form change during photostability tests ([2]; result in words): transferred to the type I crystal; Stability against light ([2]; result in words, listed as type VI crystal): unstable against light
